# Like-named read-outs stand apart in the source and are kept apart here.
# Columns and labels:
# [1] = biological target: Human CB1R (Cannabanoid receptor 1) (Homo sapiens (Human), UniProt P21554); assay: CB-1 in vitro cAMP (HTRF) assay in HEK-293 cells; assay type: cell-based; details: HEK-293 cells stably transfected with human CB1R, 250 nM Forskolin, mean where tested more than once, read-out: CB-1 (HEK_cAMP) EC50
# In short: (§1)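 HEK-293 cells stably expressing human CB1 or CB2 plated overnight, then tested in HBSS/5 mM HEPES/0.1% BSA with 0.5 mM IBMX and forskolin (1.5 μM working dilution). Intracellular cAMP quantified by competitive HTRF immunoassay (d2-cAMP, cryptate anti-cAMP) against a cAMP standard curve; compounds as 1/3 serial dilutions from 10 mM DMSO stocks.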
# [2] = biological target: Human CB2R (Cannabanoid receptor 2) (Homo sapiens (Human), UniProt P34972); assay: CB-2 in vitro cAMP (HTRF) assay in HEK-293 cells; assay type: cell-based; details: HEK-293 cells stably transfected with human CB2R, 250 nM Forskolin, mean where tested more than once, read-out: CB-2 (HEK_cAMP) EC50
# Chain of Human CB2R (Cannabanoid receptor 2) (P34972 whole entry): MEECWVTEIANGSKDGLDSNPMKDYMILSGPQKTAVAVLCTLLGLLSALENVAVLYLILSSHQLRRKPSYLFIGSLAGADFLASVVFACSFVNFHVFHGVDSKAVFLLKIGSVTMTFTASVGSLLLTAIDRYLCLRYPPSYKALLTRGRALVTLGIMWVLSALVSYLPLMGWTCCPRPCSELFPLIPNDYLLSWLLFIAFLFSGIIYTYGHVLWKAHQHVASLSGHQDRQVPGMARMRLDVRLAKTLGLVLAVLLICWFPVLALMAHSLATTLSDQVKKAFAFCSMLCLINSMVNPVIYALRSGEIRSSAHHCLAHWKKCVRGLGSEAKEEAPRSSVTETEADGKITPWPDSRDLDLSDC
# In short: as §1
# [3] = Mouse Fast PK/BBB; assay type: in vivo, Male C57bl/6j mice; details: oral; for concentration at 4 hr / concentration at 1 hr: male, C57bl/6j
# Experimental: Male C57bl/6j mice were ordered from Charles River at 22-25 g and housed 3 per cage. They were fed standard chow (Purina 5001).
# Male C57bl/6j mice were dosed with test compounds at 20 mg/kg or 30 mg/kg. Plasma was collected via retro-orbital bleeding at 1 hr and 4 hrs after dosing. Whole brain without cerebellum was collected at 4 hrs after dosing. Wet brain weight was recorded before freezing. Brains were homogenized in saline and sent for analysis for determination of concentration of test compound.
# [4] = Mouse Fast PK/BBB; assay type: in vivo, Male C57bl/6j mice; details: male, C57bl/6j, brain, oral, Dose 30 mg/kg, read-out: BRAIN Mean Conc. (ng/mL) ± Std. Dev
# [5] = DIO mice, 30 mg/kg daily
# [6] = plasma, Dose 30 mg/kg, Time 1 hr, read-out: PLASMA Mean Conc. (ng/mL) ± Std. Dev
# [7] = plasma, Dose 30 mg/kg, Time 4 hr, read-out: PLASMA Mean Conc. (ng/mL) ± Std. Dev
# Chain of Human CB1R (Cannabanoid receptor 1) (P21554 whole entry): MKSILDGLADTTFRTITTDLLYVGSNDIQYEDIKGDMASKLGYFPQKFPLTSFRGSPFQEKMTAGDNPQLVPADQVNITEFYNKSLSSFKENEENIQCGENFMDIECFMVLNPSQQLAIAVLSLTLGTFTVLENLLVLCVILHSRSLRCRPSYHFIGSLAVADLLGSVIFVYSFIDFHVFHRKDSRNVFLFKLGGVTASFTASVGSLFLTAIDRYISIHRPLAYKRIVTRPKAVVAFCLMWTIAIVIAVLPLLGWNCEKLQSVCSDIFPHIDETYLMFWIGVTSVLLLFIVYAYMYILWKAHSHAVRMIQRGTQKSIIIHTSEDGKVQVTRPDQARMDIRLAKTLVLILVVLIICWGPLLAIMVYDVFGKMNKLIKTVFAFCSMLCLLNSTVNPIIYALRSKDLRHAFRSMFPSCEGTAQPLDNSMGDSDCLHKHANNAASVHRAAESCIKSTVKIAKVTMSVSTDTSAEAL
compound,measurement,setting,value
O=C(O)c1ccc([C@@H](c2ccc(Cl)cc2)c2ccc3[nH]nc(C4CCN(S(=O)(=O)C(F)(F)F)CC4)c3c2)cc1 [Compound 232],EC50,[1],26 nM
same,EC50,[2],> 10000 nM
same,BRAIN Mean Conc. (ng/mL) ± Std. Dev (ng/mL),"[3]; Dose 30 mg/kg, Time 1 hr",BLOQ ± NA
same,PLASMA Mean Conc. (ng/mL) ± Std. Dev,"[3]; Dose 30 mg/kg, Time 1 hr",1763 ± 474 ng/mL
same,BRAIN Mean Conc. (ng/mL) ± Std. Dev (ng/mL),"[3]; Dose 30 mg/kg, Time 4 hr",BLOQ ± NA
same,PLASMA Mean Conc. (ng/mL) ± Std. Dev,"[3]; Dose 30 mg/kg, Time 4 hr",196 ± 88.0 ng/mL
"NC(=O)c1cc(S(=O)(=O)N2CCC(c3c4cc(C(c5ccc(Cl)cc5)c5ccc(Cl)cc5)ccc4nn3C3CC3)CC2)ccc1Cl [Compound 169, 5-(4-(5-(bis(4-chlorophenyl)methyl)-2-cyclopropyl-2H-indazol-3-yl)piperidin-1-ylsulfonyl)-2-chlorobenzamide]",EC50,[1],17 nM
same,EC50,[2],> 10000 nM
same,concentration at 4 hr,"[3]; brain, Dose 30 mg/kg, Time 4 hr, read-out: BRAIN Mean Conc. (ng/mL) ± Std. Dev",54.8 ± 14.5 ng/mL
same,concentration at 1 hr,[3]; [6],2460 ± 427 ng/mL
same,concentration at 4 hr,[3]; [7],2310 ± 554 ng/mL
same,concentration at 1 hr,[4],29.4 ± 3.9 ng/mL
O=S(=O)(N1CCC(c2n[nH]c3ccc(C(c4ccc(Cl)cc4)c4ccc(Cl)cc4)cc23)CC1)C(F)(F)F [Compound 35],EC50,[1],5 nM
same,EC50,[2],> 10000 nM
same,BRAIN Mean Conc. (ng/mL) ± Std. Dev (ng/mL),"[3]; Dose 20 mg/kg, Time 1 hr",BLOQ ± NA
same,PLASMA Mean Conc. (ng/mL) ± Std. Dev,"[3]; Dose 20 mg/kg, Time 1 hr",3613 ± 253 ng/mL
same,BRAIN Mean Conc. (ng/mL) ± Std. Dev (ng/mL),"[3]; Dose 20 mg/kg, Time 4 hr",BLOQ ± NA
same,PLASMA Mean Conc. (ng/mL) ± Std. Dev,"[3]; Dose 20 mg/kg, Time 4 hr",611 ± 125 ng/mL
"O=S(=O)(N1CCC(c2n[nH]c3ccc(C(c4ccc(Cl)cc4)c4ccc(Cl)cc4)cc23)CC1)C(F)(F)F [Compound 17, 5-(bis(4-chlorophenyl)methyl)-3-(1-(trifluoromethylsulfonyl)piperidin-4-yl)-1H-indazole]",EC50,[1],6 nM
same,BRAIN Mean Conc. (ng/mL) ± Std. Dev,"[3]; Dose 20 mg/kg, Time 1 hr",51.8 ± 16.6 ng/mL
same,PLASMA Mean Conc. (ng/mL) ± Std. Dev,"[3]; Dose 20 mg/kg, Time 1 hr",4478.2 ± 1576.9 ng/mL
same,BRAIN Mean Conc. (ng/mL) ± Std. Dev,"[3]; Dose 20 mg/kg, Time 4 hr",103.2 ± 10.8 ng/mL
same,PLASMA Mean Conc. (ng/mL) ± Std. Dev,"[3]; Dose 20 mg/kg, Time 4 hr",3444.4 ± 1058.9 ng/mL
same,Fed Blood Glucose (Std Err),[5]; Day 0,174 (9) mg/dL
same,Mean Body Weight (in Grams (Std Err)),[5]; Day 0,42.3 (1.0) Grams
same,Mean Body Weight (in Grams (Std Err)),[5]; Day 1,40.2 (1.1) Grams
same,Mean Daily Food Intake (in Grams (Std Err)),[5]; Day 1,0.8 (0.3) Grams
same,Mean Body Weight (in Grams (Std Err)),[5]; Day 2,38.3 (1.0) Grams
same,Mean Daily Food Intake (in Grams (Std Err)),[5]; Day 2,0.3 (0.1) Grams
same,Mean Body Weight (in Grams (Std Err)),[5]; Day 3,37.2 (1.1) Grams
same,Mean Daily Food Intake (in Grams (Std Err)),[5]; Day 3,0.5 (0.1) Grams
same,Fed Blood Glucose (Std Err),[5]; Day 4,150 (7) mg/dL
same,Mean Body Weight (in Grams (Std Err)),[5]; Day 4,36.3 (1.0) Grams
same,Mean Daily Food Intake (in Grams (Std Err)),[5]; Day 4,0.8 (0.1) Grams
same,Plasma Insulin (Std Err),"[5]; day 5, 2 hours after dose",1.24 (0.28) ng/mL
O=C(O)c1cccc(CN2CCC(c3nn(C4CC4)c4ccc(C(c5ccc(Cl)cc5)c5ccc(Cl)cc5)cc34)CC2)c1 [Compound 207],EC50,[1],9 nM
same,EC50,[2],9700 nM
same,BRAIN Mean Conc. (ng/mL) ± Std. Dev,"[3]; Dose 30 mg/kg, Time 1 hr",516 ± 44.2 ng/mL
same,PLASMA Mean Conc. (ng/mL) ± Std. Dev,"[3]; Dose 30 mg/kg, Time 1 hr",7373 ± 867 ng/mL
same,BRAIN Mean Conc. (ng/mL) ± Std. Dev,"[3]; Dose 30 mg/kg, Time 4 hr",1180 ± 115 ng/mL
same,PLASMA Mean Conc. (ng/mL) ± Std. Dev,"[3]; Dose 30 mg/kg, Time 4 hr",4317 ± 856 ng/mL
O=C(O)c1ccc([C@@H](c2ccc(Cl)cc2)c2ccc3[nH]nc(N4CCN(S(=O)(=O)C(F)(F)F)CC4)c3c2)cc1 [Compound 234],EC50,[1],16 nM
same,EC50,[2],> 10000 nM
same,BRAIN Mean Conc. (ng/mL) ± Std. Dev,"[3]; Dose 30 mg/kg, Time 1 hr",11.2 ± 3.95 ng/mL
same,PLASMA Mean Conc. (ng/mL) ± Std. Dev,"[3]; Dose 30 mg/kg, Time 1 hr",8693 ± 499 ng/mL
same,BRAIN Mean Conc. (ng/mL) ± Std. Dev,"[3]; Dose 30 mg/kg, Time 4 hr",8.31 ± 2.31 ng/mL
same,PLASMA Mean Conc. (ng/mL) ± Std. Dev,"[3]; Dose 30 mg/kg, Time 4 hr",979 ± 376 ng/mL
"COc1cc(S(=O)(=O)N2CCC(c3c4cc(C(c5ccc(Cl)cc5)c5ccc(Cl)cc5)ccc4nn3C3CC3)CC2)ccc1C(=O)O [Compound 157, 4-(4-(5-(bis(4-chlorophenyl)methyl)-2-cyclopropyl-2H-indazol-3-yl)piperidin-1-ylsulfonyl)-2-methoxybenzoic acid]",EC50,[1],2 nM
same,EC50,[2],4030 nM
same,concentration at 1 hr,[3]; [6],241 ± 117 ng/mL
same,concentration at 4 hr,[3]; [7],13 ± 1.7 ng/mL
same,BRAIN Mean Conc. (ng/mL) ± Std. Dev (ng/mL),"[3]; Dose 30 mg/kg, Time 1 hr",BLOQ ± NA
same,BRAIN Mean Conc. (ng/mL) ± Std. Dev (ng/mL),"[3]; Dose 30 mg/kg, Time 4 hr",BLOQ ± NA
NC(=O)CCC(=O)N1CCC(c2nn(C3CC3)c3ccc(C(c4ccc(Cl)cc4)c4ccc(Cl)cc4)cc23)CC1 [Compound 92],EC50,[1],29 nM
same,EC50,[2],> 10000 nM
CCOC(=O)CS(=O)(=O)N1CCC(c2n[nH]c3ccc(C(c4ccc(Cl)cc4)c4ccc(Cl)cc4)cc23)CC1 [Compound 21],EC50,[1],170 nM
same,EC50,[2],> 10000 nM
O=C(O)CCC(=O)N1CCC(c2c3cc(C(c4ccc(Cl)cc4)c4ccc(Cl)cc4)ccc3nn2C2CC2)CC1 [Compound 127],EC50,[1],4760 nM
same,EC50,[2],> 10000 nM
"CNC(=O)c1cc(S(=O)(=O)N2CCC(c3c4cc(C(c5ccc(Cl)cc5)c5ccc(Cl)cc5)ccc4nn3C3CC3)CC2)ccc1Cl [Compound 170, 5-(4-(5-(bis(4-chlorophenyl)methyl)-2-cyclopropyl-2H-indazol-3-yl)piperidin-1-ylsulfonyl)-2-chloro-N-methylbenzamide]",EC50,[1],9 nM
same,EC50,[2],> 10000 nM
O=C(c1c[nH]nn1)N1CCC(c2n[nH]c3ccc(C(c4ccc(Cl)cc4)c4ccc(Cl)cc4)cc23)CC1 [Compound 145],EC50,[1],49 nM
same,EC50,[2],> 10000 nM
NC(=O)c1cccc(S(=O)(=O)N2CCC(c3n[nH]c4ccc(C(c5ccc(Cl)cc5)c5ccc(Cl)cc5)cc34)CC2)c1 [Compound 65],EC50,[1],25 nM
same,EC50,[2],> 10000 nM
"O=S(=O)(c1ccccc1O)N1CCC(c2c3cc(C(c4ccc(Cl)cc4)c4ccc(Cl)cc4)ccc3nn2C2CC2)CC1 [Compound 149, 2-(4-(5-(bis(4-chlorophenyl)methyl)-2-cyclopropyl-2H-indazol-3-yl)piperidin-1-ylsulfonyl)phenol]",EC50,[1],7 nM
same,EC50,[2],> 10000 nM
O=C(O)c1ccc(CN2CCC(c3nn(C4CC4)c4ccc(C(c5ccc(Cl)cc5)c5ccc(Cl)cc5)cc34)CC2)s1 [Compound 254],EC50,[1],16 nM
same,EC50,[2],> 10000 nM
NC(=O)c1ccc(CN2CCC(c3nn(C4CC4)c4ccc(C(c5ccc(Cl)cc5)c5ccc(Cl)cc5)cc34)CC2)cc1 [Compound 210],EC50,[1],134 nM
same,EC50,[2],> 10000 nM
NC(=O)c1cccc(CN2CCC(c3nn(C4CC4)c4ccc(C(c5ccc(Cl)cc5)c5ccc(Cl)cc5)cc34)CC2)c1 [Compound 206],EC50,[1],8 nM
same,EC50,[2],> 10000 nM
same,BRAIN Mean Conc. (ng/mL) ± Std. Dev,"[3]; Dose 30 mg/kg, Time 1 hr",21.5 ng/mL
same,PLASMA Mean Conc. (ng/mL) ± Std. Dev,"[3]; Dose 30 mg/kg, Time 1 hr",333.5 ± 70.5 ng/mL
same,BRAIN Mean Conc. (ng/mL) ± Std. Dev,"[3]; Dose 30 mg/kg, Time 4 hr",30.6 ± 6.5 ng/mL
same,PLASMA Mean Conc. (ng/mL) ± Std. Dev,"[3]; Dose 30 mg/kg, Time 4 hr",532.8 ± 58.9 ng/mL
NC(=O)c1cccc(S(=O)(=O)N2CCC(Nc3n[nH]c4ccc(C(c5ccc(Cl)cc5)c5ccc(Cl)cc5)cc34)CC2)c1 [Compound 122],EC50,[1],99 nM
same,EC50,[2],> 10000 nM
NC(=O)c1ccc(S(=O)(=O)N2CCC(c3n[nH]c4ccc(C(c5ccc(Cl)cc5)c5ccc(Cl)cc5)cc34)CC2)cc1 [Compound 28],EC50,[1],134 nM
same,EC50,[2],> 10000 nM
"O=C(O)c1ccc(S(=O)(=O)N2CCC(c3c4cc(C(c5ccc(Cl)cc5)c5ccc(Cl)cc5)ccc4nn3C3CC3)CC2)cc1F [Compound 166, 4-(4-(5-(bis(4-chlorophenyl)methyl)-2-cyclopropyl-2H-indazol-3-yl)piperidin-1-ylsulfonyl)-2-fluorobenzoic acid]",EC50,[1],2 nM
same,EC50,[2],2390 nM
O=C(O)c1cccc(CN2CCC(c3n[nH]c4ccc(C(c5ccc(Cl)cc5)c5ccc(Cl)cc5)cc34)C2)c1 (stereo not shown) [Compound 272],EC50,[1],333 nM
same,EC50,[2],> 10000 nM

# — US9682940B2, “Indazole derivatives useful as CB-1 inverse agonists” (Janssen Pharmaceutica NV, priority 2015, dated 2017)
